Measurements taken from patent US11065201B2, “Gel formulations for local drug release” (TECHNICAL UNIVERSITY OF DENMARK, priority 2014, dated 2021).

Legend:
[1] = cited from earlier work
[2] = system: FaDu Head and Neck xenografts; assay: Diffusion of Hoechst evaluated by fluorescent imaging of tumor cryo-sections; assay type: in vivo, NMRI nude mice
Experimental: Formulations of lactose isobutyrate:X-SAIB (contrast agent): EtOH and DMSO with composition of 1)75:5:15:5, 2) 77, 5:5:12, 5:5 and 2) 80:5:10:5 were prepared along with formulations of lactose acetate:propionate(1:1):X-SAIB(contrast agent): EtOH and DMSO in 75:5:15:5 ratio. All of the gel formulations were prepared with ˜0.7‰ of Hoechst 33342, as model of a DNA binding drug. 25-30 uL of each gel was injected into FaDu Head and Neck xenografts grown on the flank of NMRI nude mice (groups of 4-8 mice were injected with each formulation). Release and gel-stability was monitored for a maximum of 5-6 days. 2-3 mice were sacrificed at predetermined times (day 1, middle of the experimental period and at the end of the experimental period). The tumors were excised and snap-frozen with liquid N2 to preserve the tumor tissue for histological examination. Stability of the radiopaque gel-depots was evaluated by micro-CT imaging (see FIG. 18). Only the lactose isobutyrate gel was subjected to X-rays, to evaluate the effect of radiation on gel-stability. […] Diffusion of Hoechst was evaluated by fluorescent imaging of the tumor cryo-sections (see FIG. 19).

[3] = Gel formation after injection of sugar ester formulations into PBS buffer; assay type: physicochemical; details: for injection into PBS and gel-formation: formulated with 35% and 20% propylene carbonate, respectively
Experimental: The gel-forming properties of the synthesized esters containing only small percentages of organic solvents and/or triglycerides were inspected in the following experiments
˜210 mg of the following sugar ester formulations: α,β Lactose octaacetate: α,β Lactose octaisobutyrate 5:1, α,β Lactose octaacetate: α,β Lactose octaisobutyrate 2:1, α,β Lactose octaacetate: α,β Lactose octaisobutyrate 1:1, α,β Lactose octaacetate: α,β Lactose octapropionate 1:1, α,β Lactose octaacetate: α,β Lactose octapropionate 1:5, α,β Lactose octaacetate: α,β Lactose octapropionate 1:3, α,β Lactose octapropionate: α,β Lactose octaisobutyrate 1:1, α,β Lactose octaacetate: α,β Lactose octaisobutyrate 1:5, α,β Lactose octapropionate, α,β Lactose octaisobutyrate: α,β Lactose octaacetate 0.5:0.5:5, α,β Lactose octaisobutyrate: α,β Lactose octaacetate 3:1, Trehalose octaacetate:Trehalose octapropionate 1:1, Trehalose octapropionate, Trehalose octaisobutyrate, Raffinose undecaacetate:Raffinose undecapropionate 1:1, Raffinose undecaisobutyrate, β-maltose octaisobutyrate and α,β-D-glucosamine pentapropionate were mixed with 20 wt % EtOH by heating to ˜37° C., vortexing and ultrasonication. ˜50-80 uL of the resulting formulations were then injected into 2 mL of PBS buffer using 25 G needles.
˜210 mg of the following sugar ester formulations: α,β Lactose octaacetate, α,β lactose octapropionate, α,β Lactose octaacetate: α,β lactose octapropionate 1:1, α,β lactose octaisobutyrate, α,β maltose octapropionate, β maltose octapropionate, α-D-glucosamine pentapropionate, α, β-D-glucosamine pentapropionate, β maltose octapropionate: α-D-glucosamine pentapropionate 1:1 and α-D-glucosamine pentaisobutyrate were mixed with 20 wt % NMP or DMSO by heating to ˜37° C., vortexing and ultrasonication. ˜50-60 uL of the resulting formulations were injected into PBS. With maltose octapropionate, glucosamine pentapropionate and lactose octaacetate alternative wt % of solvents were also tried (i.e. 25-40 wt % of the before mentioned solvents). […] In case of α,β-maltose propionate and α,β-D-glucosamine pentapropionate, injection into PBS and gel-formation are also successful when formulated with 35% and 20% propylene carbonate, respectively (examples shown in FIG. 1). Pure α-D-Glucosamine esters and hydrophilic maltose ester analogues have a tendency to form hard amorphous solids with some crystallinity after injection into PBS—so although ˜20 wt % solvent is possible to inject with difficulty, gels of this type containing ˜25-35 wt % solvent are easier to handle.
˜210 mg of α,β Lactose octaacetate: α,β Lactose octapropionate 1:1 or α,β Lactose octaisobutyrate were mixed with 2, 5 or 10 wt % glycerol trioctanoate, 5% DMSO and EtOH was added to give 20 wt % solvent in total for all formulations. In case of lactose octaisobutyrate, formulations containing 15 wt % glycerol trioctanoate and 5% DMSO, 30 wt % glycerol trioctanoate and 5% NMP/DMSO or 40 wt % glycerol trioctanoate alone were also made. The solutions were mixed by heating to ˜37° C., vortexing and ultrasonication. ˜40-60 uL of the resulting formulations were injected into PBS.

[4] = 20 wt % EtOH, ~50-80 uL injected into 2 mL PBS buffer, 25 G needles
[5] = 20 wt % NMP or DMSO (25-40 wt % also tried for some), ~50-60 uL injected into PBS

Compound: O=C([O-])c1ccccc1-c1c2cc(Br)c(=O)c(Br)c-2oc2c(Br)c([O-])c(Br)cc12.[Na+].[Na+] [Eosin Y]
- Log P [1]: ~6.4

Compound: CCOc1ccc(-c2nc3ccc(-c4nc5ccc(N6CCN(C)CC6)cc5[nH]4)cc3[nH]2)cc1 [Hoechst 33342]
- release of Hoechst into the tumors ([2]; from gel depots, ~0.7‰ Hoechst 33342, tumor cryo-sections): confirmed release of Hoechst into the tumors
- distribution of the fluorophore in the tumor ([2]; over a period of 6 days): distribution of the fluorophore across most of the tumor area

Compound: CC(C)C(=O)OCC1O[C@H](OCC2O[C@@H](O[C@]3(COC(=O)C(C)C)O[C@H](COC(=O)C(C)C)[C@@H](OC(=O)C(C)C)[C@H]3OC(=O)C(C)C)C(OC(=O)C(C)C)[C@@H](OC(=O)C(C)C)[C@@H]2OC(=O)C(C)C)C(OC(=O)C(C)C)[C@@H](OC(=O)C(C)C)[C@H]1OC(=O)C(C)C (stereo partly drawn) [Raffinose undecaisobutyrate, Raffinose Undecaisobutyrate]
- gel formation upon injection [3, 4]: formed gels upon injection

Compound: CCC(=O)OCC1O[C@@H](O[C@H]2OC(COC(=O)CC)[C@@H](OC(=O)CC)[C@H](OC(=O)CC)C2OC(=O)CC)C(OC(=O)CC)C(OC(=O)CC)[C@H]1OC(=O)CC (stereo partly drawn) [Trehalose octapropionate, Trehalose Octapropionate]
- gel formation upon injection [3, 4]: formed gels upon injection

Compound: O=C1OC2(c3ccc(O)cc3Oc3cc(O)ccc32)c2ccccc21 [fluorescein free acid]
- Log P [1]: ~1.8

Compound: NNC(=O)c1ccncc1 [isoniazide]
- Log P [1]: ~−0.8

Compound: Nc1n[n+]([O-])c2ccccc2[n+]1[O-] [tirapazamine]
- Log P [1]: ~−0.06

Compound: CC(=O)OC[C@H]1O[C@@H](O[C@H]2[C@H](OC(C)=O)[C@@H](OC(C)=O)C(OC(C)=O)O[C@@H]2COC(C)=O)[C@H](OC(C)=O)[C@@H](OC(C)=O)[C@H]1OC(C)=O (stereo partly drawn) [α,β Lactose octaacetate, α,β-Lactose Octaacetate]
- injectability ([3]; 20 wt % DMSO or 20 wt % propylene carbonate): this occurs with difficulty due to high viscosity
- gel formation upon injection [3, 5]: formation of an amorphous solid (gel) was seen

Compound: CC(C)C(=O)OC[C@H]1O[C@@H](O[C@H]2[C@H](OC(=O)C(C)C)[C@@H](OC(=O)C(C)C)C(OC(=O)C(C)C)O[C@@H]2COC(=O)C(C)C)[C@H](OC(=O)C(C)C)[C@@H](OC(=O)C(C)C)[C@H]1OC(=O)C(C)C (stereo partly drawn) [α,β lactose octaisobutyrate, α,β-Lactose Octaisobutyrate]
- gel formation upon injection ([3]; 2-40 wt % glycerol trioctanoate, with DMSO/NMP/EtOH, ~40-60 uL injected into PBS): formation of an amorphous solid (gel) was seen
- gel formation upon injection [3, 5]: formation of an amorphous solid (gel) was seen
- appearance of the injected solid ([3]; pure triglyceride used as solvent (40 wt % glycerol trioctanoate alone), up to 24 h after injection): very soft, transparant and could easily be manipulated in shape

Compound: CCC(=O)OC[C@H]1O[C@@H](O[C@H]2[C@H](OC(=O)CC)[C@@H](OC(=O)CC)C(OC(=O)CC)O[C@@H]2COC(=O)CC)[C@H](OC(=O)CC)[C@@H](OC(=O)CC)[C@H]1OC(=O)CC (stereo partly drawn) [α,β lactose octapropionate, α,β-Lactose Octapropionate]
- gel formation upon injection [3, 5]: formation of an amorphous solid (gel) was seen

Compound: CCC(=O)OCC1OC(OC(=O)CC)C(OC(=O)CC)[C@@H](OC(=O)CC)[C@@H]1O[C@H]1OC(COC(=O)CC)[C@@H](OC(=O)CC)[C@H](OC(=O)CC)C1OC(=O)CC (stereo partly drawn) [α,β maltose octapropionate, α,β-Maltose Octapropionate]
- gel formation upon injection [3, 5]: formation of an amorphous solid (gel) was seen
- injection into PBS and gel-formation [3]: successful

Compound: CCC(=O)NC1C(OC(=O)CC)OC(COC(=O)CC)[C@@H](OC(=O)CC)[C@@H]1OC(=O)CC (stereo partly drawn) [α,β-D-glucosamine pentapropionate, α,β-D Glucosamine Pentapropionate]
- gel formation upon injection [3, 4]: formed gels upon injection
- gel formation upon injection [3, 5]: formation of an amorphous solid (gel) was seen
- injection into PBS and gel-formation [3]: successful

Compound: CC(C)C(=O)NC1[C@@H](OC(=O)C(C)C)OC(COC(=O)C(C)C)[C@@H](OC(=O)C(C)C)[C@@H]1OC(=O)C(C)C (stereo partly drawn) [α-D-glucosamine pentaisobutyrate, α-D Glucosamine Pentaisobutyrate]
- gel formation upon injection [3, 5]: formation of an amorphous solid (gel) was seen

Compound: CCC(=O)NC1[C@@H](OC(=O)CC)OC(COC(=O)CC)[C@@H](OC(=O)CC)[C@@H]1OC(=O)CC (stereo partly drawn) [α-D-glucosamine pentapropionate, α-D Glucosamine Pentapropionate]
- gel formation upon injection [3, 5]: formation of an amorphous solid (gel) was seen

Compound: CCC(=O)OCC1O[C@H](O[C@@H]2C(COC(=O)CC)O[C@@H](OC(=O)CC)C(OC(=O)CC)[C@H]2OC(=O)CC)C(OC(=O)CC)[C@@H](OC(=O)CC)[C@@H]1OC(=O)CC (stereo partly drawn) [β maltose octapropionate, β-Maltose Octapropionate]
- gel formation upon injection [3, 5]: formation of an amorphous solid (gel) was seen

Compound: CC(C)C(=O)OCC1O[C@H](O[C@@H]2C(COC(=O)C(C)C)O[C@@H](OC(=O)C(C)C)C(OC(=O)C(C)C)[C@H]2OC(=O)C(C)C)C(OC(=O)C(C)C)[C@@H](OC(=O)C(C)C)[C@@H]1OC(=O)C(C)C (stereo partly drawn) [β-maltose octaisobutyrate, β-Maltose Octaisobutyrate]
- gel formation upon injection [3, 4]: formed gels upon injection

Compound: Trehalose Octaisobutyrate
- gel formation upon injection [3, 4]: formed gels upon injection
